The source of these data is US4380512A, “2β-Chloromethyl-2α-methylpenam-3α-carboxylic acid sulfone and salts and esters thereof” (Bristol-Myers Company, priority 1981, dated 1983).

Data set [1] is described as follows: in vivo. To be noted: mouse, po. The text has this:
Compounds were solubilized in propylene glycol, except for the Hetacillin

A further data set deals with E. coli. Nature of the data set: Therapeutic efficacy as mutual pro-drugs or mixtures, oral, infected mice (Table 12). The conditions noted are these: Escherichia coli, pro-drugs and their mixtures 50:38, read-out: PD50/Treatment. In kind it is in vivo. As for the experimental part:
(§1) ^a Treatment schedule: Mice were infected i.p. with about 5 ×
(§2) 10^6 organisms of E. coli in 4% mucin and 1 × 10^9 of S.
(§3) aureus in 2% mucin. Drugs were administered p.o. at 0 and 2 hour
(§4) ^b Mutual ProDrugs: BLP2048 (hetacillin: BLP2013) and BLP2049
(§5) (hetaamoxicillin: BLP2013) as well as their respective mixtures were
(§6) administered in a 50:38 ratio. PD50 values are averages of 2 to 3
(§7) tests for E. coli and 1 to 2 tests for S. aureus.
(§8) averages of 1 to 2 tests for E. coli and a single test for S. aureus.

For a further data set, the system named is S. aureus. The data set is described as above. In kind it is in vivo. To be noted: Staphylococcus aureus, pro-drugs and their mixtures 50:38, read-out: PD50/Treatment. As for the experimental part:
as §1, §2, §3, §4, §5, §6, §7, §8

The conditions of data set [2]: mouse, in vivo, po, 50 mg/kg.
Data set [3] can be described thus: in vivo. The conditions noted are these: mouse, po, 50 mg/kg; for concentration at 0.5 h / concentration at 1 h / concentration at 2 h: Blood Level.
Another data set concerns E. coli A9675. The data set is described as follows: Therapeutic efficacy of BL-P2043, BL-P2044 and components, oral, infected mice (Table 13). In kind it is in vivo. The conditions noted are these: Escherichia coli, po; E. coli A9675, p.o.; pro-drugs and mixtures 50:38; read-out: PD50/Treatment.
The nature of data set [4]: Blood levels and half-life of BL-P2024 after oral administration to mice (Table 5). In kind it is in vivo. The conditions noted are these: 100 mg/kg oral.
The conditions of data set [5]: man, oral; cited from earlier work.
A further data set relates to Bacteroides species. The data set is described as follows: Anti-Bacteroides activity, MIC by agar dilution (Table 2). In kind it is cell-based.
The subject of a further data set is B. thetaiotaomicron. The data set is described as above. To be noted: A22279, beta-lactamase +. In kind it is cell-based. As for the experimental part:
*Minimum inhibitory concentration (MIC) determined by the agar dilution
method using 50X dilutions of 24 hour cultures as inocula dispensed by th
Steer's inoculator. Assay medium composed of Brucella Agar plus 5% laked
sheep blood and 10 mcg/ml vitamin K.

Where a name gives a salt, the structure may show the parent alone. Read-outs that look alike come from different tables or passages of the source. Bounds are passed on as bounds.

Turning to `CC1(C)SC2C(N3C(=O)C(c4ccc(O)cc4)NC3(C)C)C(=O)N2C1C(=O)OCOC(=O)C1N2C(=O)CC2S(=O)(=O)C1(C)CCl` [BL-P2049, 2β-Chloromethyl-2α-methyl-1,1-dioxopenam-3-carbonyloxymethyl 6-[D-2,2-dimethyl-5-oxo-4-(4-hydroxyphenyl)-1-imidazolidinyl]-penicillanate Hydrochloride], the “Blood Level” value in “in vivo [1]” (38 mg/kg, 15 min) is 4100 ng/mL; in the data set “in vivo [1]” (38 mg/kg, 30 min), 4600 ng/mL; in the data set “in vivo [1]” (38 mg/kg, 60 min), 3100 ng/mL; in the data set “in vivo [1]” (38 mg/kg, 90 min) it was 2200 ng/mL; in the data set “in vivo [1]” (38 mg/kg, 120 min), 1600 ng/mL; in “in vivo [1]” (38 mg/kg, 150 min), 1200 ng/mL. Further, the “Blood Level” value in “in vivo [1]” (50 mg/kg, 15 min) came out at 3700 ng/mL; in the data set “in vivo [1]” (50 mg/kg, 30 min), 4700 ng/mL; in the data set “in vivo [1]” (50 mg/kg, 60 min), 4700 ng/mL; in “in vivo [1]” (50 mg/kg, 90 min), 4100 ng/mL; in “in vivo [1]” (50 mg/kg, 120 min) it was 3700 ng/mL; in the data set “in vivo [1]” (50 mg/kg, 150 min), 3300 ng/mL. Also, the ED50 in the data set on E. coli (E. coli A20649, p.o.) was 43 mg/kg; with E. coli (E. coli A21223, p.o.), 32 mg/kg; with E. coli (E. coli A-9675, p.o.), 28 mg/kg; in the data set on S. aureus (S. aureus A20379, p.o.), over 400 mg/kg; in the data set on S. aureus (S. aureus A-9606, p.o.), over 374 mg/kg.

Take `CC1(C)S[C@@H]2[C@H](NC(=O)[C@H](N)c3ccccc3)C(=O)N2[C@H]1C(=O)O` [Ampicillin, reference compound]: the “Blood Level” value in data set [2] (0.5 h) was found to be 3200 ng/mL. Besides, in [2] (1 h), the “Blood Level” value was found to be 2600 ng/mL. For the same compound, in the data set “in vivo [1]” (50 mg/kg), the AUC is 6200 ng·h/mL, the concentration at 0.5 h stood at 4000 ng/mL, the concentration at 1 h was 3300 ng/mL and the concentration at 2 h amounted to 1700 ng/mL. For the same compound, in “in vivo [3]”, the AUC is 6200 ng·h/mL, the concentration at 0.5 h was 4000 ng/mL, the concentration at 1 h was 3300 ng/mL and the concentration at 2 h is 1700 ng/mL. Besides, in the data set with E. coli A9675, the ED50 is over 400 mg/kg.

In the case of `CC(C)(C)C(=O)OCOC(=O)C1N2C(=O)CC2S(=O)(=O)C1(C)CCl` (stereo not drawn) [BL-P2024, Pivaloyloxymethyl 2β-Chloromethyl-2α-methylpenam-3α-carboxylate Sulfone], the “Blood Level” value in data set [4] (15 min) amounted to 12300 ng/mL; in data set [4] (30 min) it was 12200 ng/mL; in data set [4] (60 min), 9400 ng/mL; in data set [4] (120 min), 5700 ng/mL.

In the case of `CC1(C)SC2C(NC(=O)C(N)c3ccccc3)C(=O)N2C1C(=O)OCOC(=O)C1N2C(=O)CC2S(=O)(=O)C1(C)CCl` [BL-P2043, 6-[(R)-2-Amino-2-phenylacetamido]-3,3-dimethyl-7-oxo-4-thia-1-azabicyclo[3.2.0]heptane-2-carbonyloxymethyl 2β-chloromethyl-2-α-methylpenam-3α-carboxylate sulfone], the ED50 in the data set with E. coli A9675 stood at 44 mg/kg.

As for `CC1(C)S[C@@H]2[C@H](NC(=O)[C@H](N)c3ccccc3)C(=O)N2[C@H]1C(=O)OCOC(=O)[C@@H]1N2C(=O)C[C@H]2S(=O)(=O)C1(C)C` [ester 3], in [5], the “absorption from the gastro-intestinal tract” value was “excellently absorbed from the gastro-intestinal tract”; the “blood and tissue levels of antibiotic and β-lactamase inhibitor” value is “high blood and tissue levels of antibiotic and β-lactamase inhibitor in a balanced ratio”; the hydrolysis after absorption entry was “hydrolyzed with simultaneous liberation of the active components”.

As for `CC1(C)SC2C(NC(=O)C(N)c3ccc(O)cc3)C(=O)N2C1C(=O)OCOC(=O)C1N2C(=O)CC2S(=O)(=O)C1(C)CCl` (single isomer, unassigned) [BL-P2044, Hydrochloride], in the data set on E. coli A9675, the ED50 is 25 mg/kg.

Consider `CC1(C)S[C@@H]2[C@H](N=CN3CCCCCC3)C(=O)N2[C@H]1C(=O)OCOC(=O)[C@@H]1N2C(=O)C[C@H]2S(=O)(=O)C1(C)C` [ester 4], for which, in [5], the “absorption from the gastro-intestinal tract” value is recorded as “excellently absorbed from the gastro-intestinal tract”; the “blood and tissue levels of antibiotic and β-lactamase inhibitor” value was “high blood and tissue levels of antibiotic and β-lactamase inhibitor in a balanced ratio”; the hydrolysis after absorption entry was “hydrolyzed with simultaneous liberation of the active components”.

For the compound `CC1(C)S[C@@H]2[C@H](NC(=O)[C@H](N)c3ccc(O)cc3)C(=O)N2[C@H]1C(=O)O` [Amoxicillin, reference compound], the figures for the “Blood Level” value in data set [2] (0.5 h), in data set [2] (1 h) and in [2] (2 h) were 7000 ng/mL, 5000 ng/mL and 2200 ng/mL, respectively. The values for the AUC in “in vivo [1]” (50 mg/kg) and in “in vivo [3]” were 9500 ng·h/mL and 15400 ng·h/mL, respectively. Also, the concentration at 0.5 h is 7000 ng/mL in the data set “in vivo [1]” (50 mg/kg) and 11000 ng/mL in the data set “in vivo [3]”. In addition, the results for the concentration at 1 h in the data set “in vivo [1]” (50 mg/kg) and in the data set “in vivo [3]” were 5000 ng/mL and 9000 ng/mL, respectively. For the same compound, the concentration at 2 h in the data set “in vivo [1]” (50 mg/kg) amounted to 2200 ng/mL; in the data set “in vivo [3]”, 3100 ng/mL. The MIC in the data set on Bacteroides species (A20929, beta-lactamase +) was 16 µg/mL; in the data set with Bacteroides species (A20931, beta-lactamase +), 16 µg/mL; in the data set with Bacteroides species (A21954, beta-lactamase +), 16 µg/mL; in the data set with B. thetaiotaomicron it was 16 µg/mL.

Regarding `CC1(C)SC2C(N3C(=O)C(c4ccccc4)NC3(C)C)C(=O)N2C1C(=O)OCOC(=O)C1N2C(=O)CC2S(=O)(=O)C1(C)CCl` [BL-P2048, 2β-Chloromethyl-2α-methyl-1,1-dioxopenam-3-carbonyloxymethyl 6-(D-2,2-dimethyl-5-oxo-4-phenyl-1-imidazolidinyl)penicillanate Hydrochloride], the “Blood Level” value in the data set “in vivo [1]” (38 mg/kg, 15 min) turned out to be 10000 ng/mL; in the data set “in vivo [1]” (38 mg/kg, 120 min), 900 ng/mL; in the data set “in vivo [1]” (38 mg/kg, 150 min), 600 ng/mL; in the data set “in vivo [1]” (50 mg/kg, 15 min) it was 8000 ng/mL. The ED50 worked out at 89 mg/kg in the data set with E. coli (E. coli A20649, p.o.); 32 mg/kg in the data set on E. coli (E. coli A21223, p.o.); 49 mg/kg in the data set with E. coli (E. coli A-9675, p.o.); 400 mg/kg in the data set on S. aureus (S. aureus A20379, p.o.); 274 mg/kg in the data set with S. aureus (S. aureus A-9606, p.o.).
